Data on two compounds can be found in patent publication US12398141B2 (SHANGHAI SYNERGY PHARMACEUTICAL SCIENCES CO., LTD, priority 2019, dated 2025).

As a reminder, the IC50 is the concentration at which inhibition is half-maximal.

One series relates to Lewis male mice. Briefly: Collagen-induced rheumatoid arthritis model, clinical score. Format: in vivo. The conditions noted are these: clinical score 0-16 per animal, compounds 10 mg/kg twice/day, methotrexate 2 mg/kg every three days. Also noted: key: 0-4 per limb by redness/deformity, max 16 per animal. The method, then:
(§1) The effects of compounds H07, H12, H14, H25, H30, H39 and H44 on rheumatoid arthritis in […] were determined after long term administration by using Lewis male […] (Beijing Vital River Laboratory Animal Technology Co., Ltd.), aged 5-6 weeks and weighing […] as test animals. The anti-inflammatory pharmacodynamics characteristic of the compounds of the invention was discussed.
(§2) A certain amount of compounds were taken and dissolved in 4% Tween 80/0.5% hydroxy propyl methyl cellulose solution. A volume of intragastric administration of mice was 10 ml/kg.
(§3) Collagen type II was dissolved in 0.1M acetic acid and kept in a 4° C. refrigerator overnight at a collagen concentration of 4 mg/mL. Same volume of incomplete Freund adjuvant (Sigma, USA) was added in collagen before injection in test, which was emulsified high speed homogenizer (30000 rpm) to prepare a collagen emulsion. This procedure was carried out on ice.
(§4) Mice were immunologically injected with the collagen emulsion by two separate times for modeling on days 1 and 7 (the day before modeling was day 0). 0.1 ml of collagen emulsion prepared as above was injected intradermally into a root of tail at a single point, and 0.2 ml was injected intradermally into back at two points. The animals were subjected to clinical score and paw volume test from day 10 to day 14 after modeling. Animals successfully modeled (average clinical score≥3 points/animal) were assigned to each administration group, with each group included 10 animals. They were administrated intragastrically with above compounds or resolvents at a dosage of 10 mg/kg twice/day, and administrated intragastrically with methotrexate (2 mg/kg, Sigma, USA) every three days, until day 27. During the test, the […] were scored twice a week, and the paw volume and body weight were measured twice.
(§5) According to the different degrees of lesions (redness and joint deformation), the scores were ranged from 0 to 4 points, with the highest score of 4 points for each limb and 16 points for each animal. Scoring standards are as follows: 0, no redness; 1, slight redness on mid legs (tarsals) or ankles; 2, slight redness from ankles to mid legs (tarsals); 3, medium redness from ankles to tarsometatarsal joints; 4, severe redness from toes or fingers to ankles or wrist joints.

Test in series [1]: as above
Format: in vivo, mice. Also noted: key: 0-4 per limb by redness/deformity, max 16 per animal. To be noted: clinical score 0-16 per animal, Day 0 (before modeling). The protocol:
as §1, §2, §3, §4, §5

Series [2] is described as follows: Pharmacokinetic test after intragastric administration. In kind it is in vivo. The conditions noted are these: Sprague-Dawley, mouse, plasma, po, SD mice, 5 mg/kg intragastric. The protocol: Drug concentrations of compounds H01, H07, H11, H12, H14, H15, H22, H25, H29, H30, H33, H39 and H44 intragastrically administrated in plasma by using LC/MS/MS method at various time points were determined by using Sprague-Dawley (SD) […], aged 7-8 weeks and weighing […] as test animals. Pharmacokinetic behavior of the compounds of the invention in […] was studied and its pharmacokinetic characteristics were evaluated.
A certain amount of compounds was taken and dissolved in 50% PEG400/water to prepare a uniform solution.
Mice were administered intragastrically with the above compounds with a dosage of 5 mg/kg. Blood (0.2 ml) was taken from orbits before administration and 0.083 h, 0.25 h, 0.5 h, 1.0 h, 2.0 h, 4.0 h, 6.0 h, 8.0 h, 12.0 h and 24.0 h after administration. The blood was placed in anticoagulant tubes containing dipotassium ethylene glycol diethyl ether diamine tetraacetic acid, centrifugated at 6000 rpm at 4° C. for 10 minutes to separate plasma and saved at −80° C.
50 μL plasma at various time was taken and 150 μL acetonitrile solution containing internal standard tolbutamide (Sigma, USA) was added, mixed and stirred for 5 minutes. After centrifugation for 5 minutes at 12,000 rpm, 100 μL supernatant was taken, mixed with 200 μL water, following by sample injection and analysis.
Liquid chromatogram system was LC-20AD UFLC High Performance Liquid Chromatography system. Mass spectrum system was AB Sciex API4000 triple quadrupole mass spectrometer equipped with Electron Spray Ionization (ESI) (Applied Biosystems, Canada). A software for controlling liquid chromatography-mass spectrometry and quantitative analysis was Anna Rust 1.6 (Applied Biosystems, Canada). Pharmacokinetic parameters were analyzed by WinNonlin (version 5.2, Pharsight, Mountain View, […]) non-compartment model.
The test compound was dissolved in dimethyl sulfoxide to prepare a stock solution with a concentration of 1 mg/mL. The solution was diluted with 50% acetonitrile to obtain a series of standard working solutions with concentrations of 10 μg/mL, 3 μg/mL, 1 μg/mL, 0.3 μg/mL, 0.1 μg/mL, 0.03 μg/mL and 0.01 μg/mL, and a series of standard quality control solutions with concentrations of 8 μg/mL, 0.5 μg/mL, 0.03 μg/mL. 5 μL standard solution was mixed with 45 μL blank plasma substrate uniformly to obtain standard solutions of each concentration of a standard curve (1000 ng/mL, 500 ng/mL, 200 ng/mL, 100 ng/mL, 10 ng/mL, 5 ng/mL, 2 and 1 ng/mL) and quality control solutions (plasma samples: 800 ng/mL, 50 and 3 ng/mL).
Internal standard tolbutamide solid powder was dissolved in dimethyl sulfoxide to prepare a 1 mg/mL stock solution. The stock solution was diluted with 100% acetonitrile to obtain 200 ng/mL solution as a protein precipitation solution.

In a further series the test system is male ICR mice. Briefly: Carrageenan-induced paw swelling in mice. Format: in vivo. To be noted: 10 mg/kg intragastric. The method, then:
The inhibiting effects of compounds H01, H07, H11, H12, H14, H15, H22, H25, H29, H30, H33, H39 and H44 on paw swelling in mice were determined after intragastric administration by using male ICR mice (ShanghaiSippr-BK laboratory animal Co. Ltd.), aged 8 weeks and weighing 22-24 g as test animals. The anti-inflammatory pharmacodynamics characteristic of the compounds of the invention was discussed.
A certain amount of compounds were taken and dissolved in 4% Tween 80/0.5% hydroxy propyl methyl cellulose solution. A volume of intragastric administration in mice was 10 ml/kg.
Mice were given 10 mg/kg compounds H01, H07, H11, H12, H14, H15, H22, H25, H29, H30, H33, H39, and H44 and the positive drug indomethacin (Diamond Reagent Co., Ltd., China) by intragastric administration at the dosages shown in the table below and 20 μL 1% (W/V) carrageenan was injected subcutaneously into the plantar 0.5 h later. A paw volume was measured with a paw swelling meter before and at different time points after modeling (0.5 h, 1 h and 2 h). According to the formula: paw swelling rate=(paw volume after administration−basic paw volume)/basic paw volume×100, the inhibiting effect of the compounds on paw volume was calculated. The basic paw volume was a paw volume before administration.
Background: The carrageenan paw model is a standard test of acute inflammation.

For another series, the system named is Blast T cell. As to the kind of experiment: Cell proliferation test of IL-2 stimulated Blast T cell. In kind it is cell-based. To be noted: Homo sapiens; IL-2 stimulated Blast T cell proliferation, 72 hours. The protocol: Inhibiting test of the compounds of the invention on proliferation of Blast T cell and TF-1 cell (American type culture collection) was carried out by the following method. The tested compounds […], and […] were dissolved in dimethyl sulfoxide from 0.0006 to 10 μM in quadruplicate dilutions. […] 10 μg/ml […] was added to stimulate and obtain cells with a density of 2×10^6/mL, which were incubated for 3 days. The cells were washed with phosphate buffer for three times and IL-2 (100 u/ml) was added to stimulate for 1 week. Cells were suspended using the culture medium and seeded at 5×10^4 cell/well density into 96-well plates, and incubated for 1 h with the prepared test compound or DMSO control at various concentrations from 0.0006 to 10 μM diluted by 4-fold volume. After incubation with 20 u/ml of IL-2 (50 μl/well without reference well) for 72 hours, Celltiter Glo® reagent (Promega, G7571) was added and mixed for 5 minutes, then incubated for 30 minutes at room temperature. The luminescence value was read on SpectraMax L (Molecular Device). […] The IC50 values of the corresponding compounds were then obtained by fitting by using the XLFit fitting tool in excel.

The next series deals with TF-1 cell. As to the kind of experiment: TF-1 cell proliferation test. In kind it is cell-based. To be noted: Homo sapiens, 72 h. The method, then:
Inhibiting test of the compounds of the invention on proliferation of Blast T cell and TF-1 cell (American type culture collection) was carried out by the following method. The tested compounds […], and […] were dissolved in dimethyl sulfoxide from 0.0006 to 10 μM in quadruplicate dilutions. […] The luminescence value was read on Microplate Reader (Molecular Device). […] The IC50 values of the corresponding compounds were then obtained by fitting by using the XLFit fitting tool in excel.

For the next series, the system named is Sprague-Dawley (SD) mice. As to the kind of experiment: Concanavalin-induced paw swelling in mice. Format: in vivo. To be noted: 10 mg/kg intragastric. The protocol: The inhibiting effects of compounds H13, H14, H09, H11 and compounds of Example 12 on paw swelling in […] were determined after intragastric administration by using Sprague-Dawley (SD) […] (ShanghaiSippr-BK laboratory animal Co. Ltd.), aged 6-7 weeks and weighing 160-180 g as test animals. The anti-inflammatory pharmacodynamics characteristic of the compounds of the invention was discussed.
A certain amount of compounds were taken and dissolved in 4% Tween 80/0.5% hydroxy propyl methyl cellulose solution.
Mice were given compounds H01, H07, H11, H12, H14, H15, H22, H25, H29, H30, H33, H39, and H44 and the positive drug indomethacin (Diamond Reagent Co., Ltd., China) by intragastric administration at the dosages shown in the table below and 0.1 ml 0.03% (W/V) concanavalin was injected subcutaneously into the plantar 0.5 h later. A paw volume was measured with a paw swelling meter before modeling and 1 h, 2 h, 4 h and 6 h after modeling. According to the formula: paw swelling rate=(paw volume after administration−basic paw volume)/basic paw volume×100, the inhibiting effect of the compounds on paw volume was calculated. The basic paw volume was a paw volume before administration.

For the compound `CN(Cc1cnc2nc(N)nc(N)c2n1)c1ccc(C(=O)N[C@@H](CCC(=O)O)C(=O)O)cc1` [Methotrexate, reference compound], the “Score Day 13” value in the series on Lewis male mice (Day 13) is on record as 3.10 ± 0.43. Further, the “Score Day 14” value in the series on Lewis male mice (Day 14) turned out to be 3.60 ± 0.37. The “Score Day 18” value in the series on Lewis male mice (Day 18) was determined as 4.10 ± 0.47. Also, in the series on Lewis male mice (Day 21), the “Score Day 21” value is 6.45 ± 0.23. In the series with Lewis male mice (Day 25), the “Score Day 25” value worked out at 8.87 ± 0.21. Also, in the series with Lewis male mice (Day 27), the “Score Day 27” value is 9.65 ± 0.13. In series [1], the “Score Day 0” value turned out to be 0.00 ± 0.00.

For the compound `CC[C@@H]1CN(C(=O)NCC(F)(F)F)CC1Nc1c(C#N)cnc2[nH]ccc12` (stereo partly shown) [Compound H01], in series [2] (read-out: Area under the curve (AUC0-24, ng/ml · h)), the AUC(0-t) was 1720 ± 220 ng·h/mL. For the same compound, in series [2] (read-out: Plasma concentration (Cmax, ng/ml)), the Cmax is 578 ± 72 ng/mL. Also, in series [2] (read-out: half life (T1/2, h) (converted)), the half-life was 2.13 ± 0.27 h. Besides, in the series with male ICR mice (0.5 h), the “Paw swelling_0.5 h (%)” value was found to be 33.99 ± 1.69%. Also, the “Paw swelling rate_1 h (%)” value in the series on male ICR mice (1 h) was found to be 40.93 ± 1.64%; in the series on Sprague-Dawley (SD) mice (1 h), 25.70 ± 1.50%. The “Paw swelling rate_2 h (%)” value is 41.56 ± 5.23% with male ICR mice (2 h) and 25.20 ± 2.40% with Sprague-Dawley (SD) mice (2 h). In addition, the IC50 in the series with Blast T cell is 0.013 µM; in the series on TF-1 cell, 0.67 µM. Moreover, in the series with Sprague-Dawley (SD) mice (4 h), the “Paw swelling rate_4 h (%)” value is reported as 31.20 ± 3.10%. For the same compound, the “Paw swelling rate_6 h (%)” value in the series on Sprague-Dawley (SD) mice (6 h) came to 30.20 ± 3.10%.
